Experimental data as given in patent publication US8507523B2, “Therapeutic tetrahydroisoquinoline-based compositions for cancer therapy” (priority 2006, dated 2013).
Where two headings read alike, the source gives them in different places.

Columns and labels:
[1] = tested on: normal primary cultures of rat brain astrocytes; experiment: Dose response (percent survival) in primary cultures of astrocytes; format: cell-based; details: 4 days of treatment
Source text: (§1) 6,7-Dimethoxy-1-[4-(4-methoxypyridin-3-yl)benzyl]-1,2,3,4-tetrahydroisoquinolinehydrochloride (EDL-291) was synthesized as described herein in the laboratory of Dr. Duane D. Miller at The University of Tennessee Health Science Center. Briefly, the primary cultures of astrocytes and cultures of C6 glioma cell lines were handled identically with respect to treatment concentrations and manipulations of cells for the screening assays. The cells were trypsinized and transferred to 96-well plates at a cell density of 10^3 cells/mm^2 in the wells. The cells were grown overnight in 100 μL of 10% FCS BME in a 37° C. incubator containing a humid, 5% CO2 atmosphere.
(§2) EDL291 was dissolved completely to make a […] stock solution and diluted to produce a series of concentrations. A 20 μL aliquot of these initial solutions was added to 180 μl of 2% FCS BME to produce the test concentration. The vehicle solution was tested as a control. […] Immediately before treatment, the 10% FCS BME was removed from the cells and replaced with the 180 μl of the treatment medium. The cultured cells (normal primary cultures of rat brain astrocytes or C6 glioma purchased from ATCC) were incubated with test compound for 4 days. The cells were fixed with 4% paraformaldehyde, stained with 0.1% Cresylecth violet stain, and quantitated. The screening data was collected as four wells for each dose per compound (screening) or concentration (dose response curve). Also, the average growth of 8 wells with no treatment was used as a negative control for each plate (100% growth). The cells for dose response curves were grown in the same media and were handled in a similar manner as in the screening assays.
(§3) The cytotoxic character of each compound was reported as the percent survival, calculated as the average A560 for treated cells divided by A560 of untreated (100% control) cells, and expressed as a percentage. Values less than 100% indicate a cytostatic or cytotoxic effect. Dose response curves and EC50 values were attained via plots of percent survival vs. concentration.

C6 glioma [2] = experiment: Dose response (percent survival) in C6 glioma cell cultures; format: cell-based, rat
Source text: as §1, §2, §3

C6 glioma [3] = experiment: C6 glioma transplanted into rat brain, tumor size determination; format: in vivo, Sprague-Dawley rats
Description: For studies in which C6 glioma are transplanted into the brain, a C6 cell line produced in the inventors' laboratory that caries the β-galactosidase marker was used. The cell line was transfected with the pCMVβ expression vector (Clontech, Palo Alto, Calif.) and stable transfectants were selected using G418 (GibcoBRL). The glioma cells were plated at a density of 5×10^3 cells/cm^2 into T-75 culture flasks. The cells were allowed to grow to confluence in BME with 10% fetal calf serum. On the day before transplantation, the cultures were rinsed with Hank's Balanced Salt Solution placed in BME with 10% rat serum (Equitech-Bio Inc., Kerrville, Tex.).
A total of 18 male Sprague-Dawley rats (250-350 g) were deeply anesthetized with (13 mg/kg, Rompom and 87 mg/kg, Ketalar) for the surgery. The rats were monitored during the surgery to insure that they remained deeply anesthetized and unresponsive to pain. […]
The tumor was allowed to grow for three days prior to treatment. […] During the treatment period the animal were monitored daily. […]
The size of tumors in each animal was measured. […] The digital images were analyzed to define the volume of the tumor using the program NIH image. […] The codes were released and the data compiled and analyzed using a Student t test. […]

[4] = Acute toxicity observation in treated glioma-bearing rats; format: in vivo, Sprague-Dawley rats; details: 40 mg/kg
Description: The tumor was allowed to grow for three days prior to treatment. EDL-291 (40 mg/kg) was delivered by IP delivery twice a day for the next seven days. Animals were placed into one of two treatment groups: 9 rats received carrier solution only (Hanks Balanced Salt Solution, HBSS plus 10% DMSO) and 9 rats received EDL-291. During the treatment period the animal were monitored daily. After a treating the animals for 7 days, the rats were deeply anesthetized with 26 mg/kg Rompium and 174 mg/kg Ketalar and perfused through the heart with saline followed by 4% paraformaldehyde in phosphate buffer (pH 7.4). Brains were removed from the skull, post-fixed for 24 hours and then placed in a 30% sucrose solution. The brains were sectioned at […] with a freezing microtome. One 1-in-5 series of sections was mounted on glass slides and stained by the Nissl method.
Approximately three days after tumor cell implantation, animals began receiving intraperitoneal administration of EDL-291 (40 mg/kg) twice daily for the next seven days. Animals were placed into one of two treatment groups: 9 rats received vehicle only (10% DMSO in Hanks Balanced Salt Solution, HBSS) and 9 rats received EDL-291. Animals were monitored daily during the treatment period. […]

COc1cc2c(cc1OC)C(Cc1ccc(-c3cnccc3OC)cc1)NCC2.Cl (stereo not shown) [EDL-291, 6,7-Dimethoxy-1-[4-(4-methoxypyridin-3-yl)benzyl]-1,2,3,4-tetrahydroisoquinolinehydrochloride]
EC50 ([1]; read-out: EC50 μM Astrocyte): 26 µM | EC50 ([1]; Rattus norvegicus, Astrocyte, 96 h): 22.8 µM | fold difference in effect concentration, C6 glioma relative to normal brain astrocytes (C6 glioma [2]; EC50 astrocytes vs EC50 C6 glioma): 36 fold | EC50 (C6 glioma [2]; Rattus norvegicus, C6 glioma, 96 h, C6 glioma cells, 4 days of treatment, percent survival): 0.6 µM | tumors smaller on average than in control rats (C6 glioma [3]; 40 mg/Kg BID IP for 7 days, n=9, p=0.02 (student t test)): 32% | tumor size compared to vehicle control animals (in words) (C6 glioma [3]; 40 mg/kg IP twice daily for 7 days): statistically significant reduction in tumor size | acute toxicity [4]: no evidence of acute toxicity
